# Assay results taken from patent US3950517A, “Insulin derivatives” (National Research Development Corporation, priority 1970, dated 1976).
# Columns and labels:
# [1] = tested on: Mouse; assay: Mouse convulsion assay (British Pharmacopoeia, 1968) against neutral insulin standard; assay type: in vivo; details: Table 1; percentage basis relative to insulin
# Text: (§1) In most cases the new derivatives have an initial bloor sugar lowering effect which is virtually indistinguishable from insulin itself. In contrast the derivatives have less than about 50% of the immunoreactivity of the parent insulin as determined by radioimmunoassay. In many cases the reduction in immunoreactivity (reactivity towards specific insulin antibody) is as low as 30% or even 10% of that of the parent hormone. The figures are expressed on a percentage basis relative to insulin.
# The insulin derivatives were separated from trace amounts of urea and salt by elution from a Sephadex G.10 column (2.5 × 60 cm.) equilibrated with 5% aqueous acid and the protein, after lyophilisation, was dried over phosphorous pentoxide at room temperature for 2 days. The derivatives were assayed against a neutral insulin solution (Nuso insulin batch A 354) as standard by the Mouse Convulsion method (British Pharmacopoeia, 1968). All injections were of solutions in acetate buffer, pH 8.0.
# [2] = tested on: specific insulin antibody; assay: Radioimmunoassay of immunoreactivity (reactivity towards specific insulin antibody); assay type: binding; details: percentage basis relative to insulin; for Radioimmunoassay Immunoreactivity: Table 1; for Immunoreactivity: Table 2
# Text: as §1
# [3] = tested on: blood sugar; assay: Blood sugar lowering activity by intravenous injection into laboratory animals; assay type: in vivo; details: Table 2; percentage basis relative to insulin
# Text: as §1
Substance,Mouse convulsion assay Mean potency [1],Radioimmunoassay Immunoreactivity [2],Immunoreactivity [2],Blood sugar lowering [3]
Phe^B1 acetyl insulin,100%,30%,–,–
"Lys^B29 -monosubstituted insulins (b) Thiazolidine (bovine): Bovine insulin acylated at B29 lysine with 2,2-dimethyl-3-formyl-L-thiazolidine-4-carboxylic acid",101%,84%,–,–
"Phe^B1, Gly^A1, Lys^B29 -trisubstituted insulins (b) Acetoacetyl (bovine): Bovine insulin acetoacetylated at A1, B1 and B29",77%,17%,–,–
Phe^B1 -Gly^A1 -disubstituted insulins (b) methylthiocarbamyl: Insulin methylthiocarbamylated at A1 and B1,–,–,20%,100%
Phe^B1 -monosubstituted insulins (b) Acetoacetyl (bovine): Bovine insulin acetoacetylated (diketen) at the B1 phenylalanine amino group,109%,8.6%,–,–
Gly^A1 -monosubstituted insulins (a) Acetyl (bovine): Bovine insulin acetylated at the A1 glycine amino group,105%,71%,–,–
(Carbamyl-Phe)B1 -insulin,–,–,23%,100%
Gly^A1 -monosubstituted insulin (b) methylthiocarbamyl: Insulin methylthiocarbamylated at A1 glycine,–,–,92%,100%
"Crystalline bovine insulin: Parent bovine insulin, reference set to 100 [reference compound]",100%,100%,100%,100%
"Phe^B1 -monosubstituted insulins (c) Thiazolidine (bovine): Bovine insulin acylated at B1 phenylalanine with 2,2-dimethyl-3-formyl-L-thiazolidine-4-carboxylic acid",103%,27%,–,–
"Gly^A1 -monosubstituted insulins (c) Thiazolidine (bovine): Bovine insulin acylated at A1 glycine with 2,2-dimethyl-3-formyl-L-thiazolidine-4-carboxylic acid",57%,81%,–,–
Gly^A1 -monosubstituted insulin (a) carbamyl: Insulin carbamylated at A1 glycine,–,–,–,100%
(Carbamyl-Gly)A1 -(Carbamyl-Phe)B1 -insulin,–,–,10%,100%
(Carbamyl-Gly)A1 -(Carbamyl-Phe)B1 -(Carbamyl-Lys)B29 -insulin,–,–,9%,100%
"Phe^B1, Gly^A1 -disubstituted insulins (b) Acetoacetyl (bovine): Bovine insulin acetoacetylated at B1 and A1",76%,14%,–,–
Gly^A1 -monosubstituted insulins (b) Acetoacetyl (bovine): Bovine insulin acetoacetylated at the A1 glycine amino group,88%,87%,–,–
Gly^A1 Lys^B29 -diacetyl insulin,93%,67%,–,–
Lys^B29 acetyl insulin,114%,83%,–,–
Phe^B1 Gly^A1 -diacetyl insulin,90%,25%,–,–
"A1, B1, B29 -triacetyl-insulin",96%,10%,–,–
